Positions of bridges follow the written chain, without caps; N, C: chain ends. Residues, ends and D or L forms follow the SMILES beside them.

The target in this test is T1, IL17-RE-IL-17C (Homo sapiens, UniProt Q8NFR9+Q9P0M4).
T1 sequence (Q9P0M4 whole entry): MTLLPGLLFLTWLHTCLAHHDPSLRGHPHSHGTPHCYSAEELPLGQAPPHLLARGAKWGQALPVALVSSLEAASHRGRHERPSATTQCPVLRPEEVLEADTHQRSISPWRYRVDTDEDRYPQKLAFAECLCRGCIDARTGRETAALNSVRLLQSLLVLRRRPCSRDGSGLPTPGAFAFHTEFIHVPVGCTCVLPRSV
T1 sequence (Q8NFR9 whole entry): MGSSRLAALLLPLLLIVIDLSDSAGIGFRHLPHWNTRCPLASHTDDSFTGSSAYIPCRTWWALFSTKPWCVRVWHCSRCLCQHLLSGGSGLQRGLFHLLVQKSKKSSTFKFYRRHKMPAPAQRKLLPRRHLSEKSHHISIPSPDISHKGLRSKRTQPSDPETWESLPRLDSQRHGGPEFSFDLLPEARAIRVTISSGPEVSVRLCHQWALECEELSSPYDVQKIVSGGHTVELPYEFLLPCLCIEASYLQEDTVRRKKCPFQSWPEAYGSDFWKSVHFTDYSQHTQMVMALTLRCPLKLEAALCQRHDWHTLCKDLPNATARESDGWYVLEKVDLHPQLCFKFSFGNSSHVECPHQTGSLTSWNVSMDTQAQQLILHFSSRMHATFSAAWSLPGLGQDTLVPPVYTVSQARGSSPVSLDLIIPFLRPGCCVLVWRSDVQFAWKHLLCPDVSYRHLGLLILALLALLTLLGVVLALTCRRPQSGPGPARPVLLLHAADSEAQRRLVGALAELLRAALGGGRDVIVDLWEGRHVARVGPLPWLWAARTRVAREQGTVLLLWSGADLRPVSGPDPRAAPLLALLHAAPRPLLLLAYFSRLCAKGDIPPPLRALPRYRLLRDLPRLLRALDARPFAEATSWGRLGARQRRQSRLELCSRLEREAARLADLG
Put plainly: Inhibition of IL-17C/IL-17RE interaction (unknown origin) incubated for 1.5 hrs by ELISA method. The test is classed as protein-complex assay. A general note: ELISA stands for enzyme-linked immunosorbent assay.
On to `CC(C)C[C@@H]1NC(=O)[C@H](Cc2c[nH]c3ccccc23)NC(=O)[C@H](C)NC(=O)[C@H](CC(=O)O)NC(=O)[C@H](Cc2ccccc2)NC(=O)[C@H](Cc2c[nH]cn2)NC(=O)[C@H](Cc2ccc(O)cc2)NC(=O)CSC[C@@H](C(=O)NCC(N)=O)NC(=O)[C@H](CC(C)C)NC(=O)[C@H](CC(C)C)NC(=O)[C@H]([C@@H](C)O)NC(=O)[C@H](CO)NC1=O` ({CH2CO}-YHFDAWLSTLLCG-NH2; thioether N-12), for which the IC50 is more than 30000 nM.

In turn, `CC[C@H](C)[C@@H]1NC(=O)CNC(=O)[C@H](Cc2ccc(O)cc2)NC(=O)[C@H](Cc2ccc(O)cc2)NC(=O)[C@H](Cc2c[nH]cn2)NC(=O)[C@H](Cc2c[nH]cn2)NC(=O)[C@H](Cc2ccc(O)cc2)NC(=O)CSC[C@@H](C(=O)NCC(N)=O)NC(=O)CNC(=O)[C@H](CC(C)C)NC(=O)[C@H](CCC(=O)O)NC(=O)CNC(=O)[C@H](Cc2ccc(O)cc2)NC(=O)[C@H](CC(C)C)NC1=O` ({CH2CO}-YHHYYGILYGELGCG-NH2; thioether N-14) yielded an IC50 of more than 30000 nM.

Take `CC[C@H](C)[C@@H]1NC(=O)[C@H](Cc2c[nH]c3ccccc23)NC(=O)[C@H](C)NC(=O)[C@H](CC(=O)O)NC(=O)[C@H](Cc2ccccc2)NC(=O)[C@H](Cc2c[nH]cn2)NC(=O)[C@H](Cc2ccc(O)cc2)NC(=O)CSC[C@@H](C(=O)NCC(N)=O)NC(=O)[C@H](CCC(N)=O)NC(=O)[C@H](CC(C)C)NC(=O)[C@H](CC(C)C)NC(=O)[C@H]([C@@H](C)O)NC(=O)[C@H](C)NC1=O` ({CH2CO}-YHFDAWIATLLQCG-NH2; thioether N-13): the IC50 was more than 30000 nM.

`CC(C)C[C@@H]1NC(=O)[C@H](C)NC(=O)[C@H]([C@@H](C)O)NC(=O)[C@H](C)NC(=O)[C@H](CC(C)C)NC(=O)[C@H](Cc2c[nH]c3ccccc23)NC(=O)[C@H](CO)NC(=O)[C@H](CC(=O)O)NC(=O)[C@H](Cc2ccccc2)NC(=O)[C@H](Cc2c[nH]cn2)NC(=O)[C@H](Cc2ccc(O)cc2)NC(=O)CSC[C@@H](C(=O)NCC(N)=O)NC(=O)[C@H](CCCNC(=N)N)NC1=O` ({CH2CO}-YHFDSWLATALRCG-NH2; thioether N-13): the IC50 was more than 30000 nM.

`CC[C@H](C)[C@@H]1NC(=O)[C@H](CCCNC(=N)N)NC(=O)[C@H](Cc2ccc(O)cc2)NC(=O)[C@H](Cc2ccc(O)cc2)NC(=O)[C@H](Cc2c[nH]cn2)NC(=O)[C@H](Cc2c[nH]cn2)NC(=O)[C@H](Cc2ccc(O)cc2)NC(=O)CSC[C@@H](C(=O)NCC(N)=O)NC(=O)[C@H](CO)NC(=O)[C@H](CC(C)C)NC(=O)[C@H](CCC(=O)O)NC(=O)CNC(=O)[C@H](Cc2ccc(O)cc2)NC(=O)[C@H](CC(C)C)NC1=O` (stereo in doubt) registered an IC50 of more than 30000 nM.

With `CC[C@H](C)[C@@H]1NC(=O)[C@H](CCCNC(=N)N)NC(=O)[C@H](Cc2ccc(O)cc2)NC(=O)[C@H](Cc2ccc(O)cc2)NC(=O)[C@H](Cc2c[nH]cn2)NC(=O)[C@H](Cc2c[nH]cn2)NC(=O)[C@H](Cc2ccc(O)cc2)NC(=O)CSC[C@@H](C(=O)NCC(N)=O)NC(=O)CNC(=O)[C@H](CC(C)C)NC(=O)[C@H](CCC(=O)O)NC(=O)CNC(=O)[C@H](Cc2ccc(O)cc2)NC(=O)[C@H](CC(C)C)NC1=O` ({CH2CO}-YHHYYRILYGELGCG-NH2; thioether N-14), the IC50 came to 166 nM.

As for `CC[C@H](C)[C@@H]1NC(=O)[C@H](CO)NC(=O)[C@H](Cc2ccc(O)cc2)NC(=O)[C@H](Cc2ccc(O)cc2)NC(=O)[C@H](Cc2c[nH]cn2)NC(=O)[C@H](Cc2c[nH]cn2)NC(=O)[C@H](Cc2ccc(O)cc2)NC(=O)CSC[C@@H](C(=O)NCC(N)=O)NC(=O)CNC(=O)[C@H](CC(C)C)NC(=O)[C@H](CCC(=O)O)NC(=O)CNC(=O)[C@H](Cc2ccc(O)cc2)NC(=O)[C@H](CC(C)C)NC1=O` ({CH2CO}-YHHYYSILYGELGCG-NH2; thioether N-14), the IC50 was 2520 nM.

On to `CC(C)C[C@@H]1NC(=O)[C@H](Cc2c[nH]c3ccccc23)NC(=O)[C@H](CO)NC(=O)[C@H](CC(=O)O)NC(=O)[C@H](Cc2ccccc2)NC(=O)[C@H](Cc2c[nH]cn2)NC(=O)[C@H](Cc2ccc(O)cc2)NC(=O)CSC[C@@H](C(=O)NCC(N)=O)NC(=O)[C@H](CCCCN)NC(=O)[C@H](CC(C)C)NC(=O)[C@H](CCCNC(=N)N)NC(=O)[C@H](CCCCN)NC(=O)[C@H](C)NC1=O` ({CH2CO}-YHFDSWLAKRLKCG-NH2; thioether N-13), for which the IC50 was more than 30000 nM.

In the case of `CC[C@H](C)[C@@H]1NC(=O)[C@H](Cc2c[nH]cn2)NC(=O)[C@H](Cc2ccc(O)cc2)NC(=O)CSC[C@@H](C(=O)NCC(N)=O)NC(=O)CNC(=O)[C@H](CC(C)C)NC(=O)[C@H](CC(N)=O)NC(=O)CNC(=O)[C@H](Cc2ccc(O)cc2)NC(=O)[C@H](CC(C)C)NC(=O)[C@H](CO)NC(=O)[C@H](CCCNC(=N)N)NC(=O)[C@H](Cc2ccc(O)cc2)NC(=O)[C@H](Cc2ccc(O)cc2)NC1=O` ({CH2CO}-YHIYYRSLYGNLGCG-NH2; thioether N-14), half-maximal inhibition (IC50) required 1.7 nM.

In turn, `CC(C)C[C@@H]1NC(=O)[C@H](CCC(=O)O)NC(=O)CNC(=O)[C@H](Cc2ccc(O)cc2)NC(=O)[C@H](CC(C)C)NC(=O)[C@H](C(C)C)NC(=O)[C@H](CCCNC(=N)N)NC(=O)[C@H](Cc2ccc(O)cc2)NC(=O)[C@H](Cc2ccc(O)cc2)NC(=O)[C@H](Cc2c[nH]cn2)NC(=O)[C@H](Cc2cnc[nH]2)NC(=O)[C@H](Cc2ccc(O)cc2)NC(=O)CSC[C@@H](C(=O)NCC(N)=O)NC(=O)CNC1=O` ({CH2CO}-YHHYYRVLYGELGCG-NH2; thioether N-14) displayed an IC50 of 414 nM.

In turn, `CC(C)C[C@@H]1NC(=O)[C@H](CO)NC(=O)CNC(=O)[C@H](Cc2ccc(O)cc2)NC(=O)[C@H](CC(C)C)NC(=O)[C@H](CO)NC(=O)[C@H](CCCNC(=N)N)NC(=O)[C@H](Cc2ccc(O)cc2)NC(=O)[C@H](Cc2ccc(O)cc2)NC(=O)[C@H](C(C)C)NC(=O)[C@H](Cc2cnc[nH]2)NC(=O)[C@H](Cc2ccc(O)cc2)NC(=O)CSC[C@@H](C(=O)NCC(N)=O)NC(=O)CNC1=O` ({CH2CO}-YHVYYRSLYGSLGCG-NH2; thioether N-14) displayed an IC50 of 5.4 nM.

As for `CC(C)C[C@@H]1NC(=O)[C@H](CC(N)=O)NC(=O)CNC(=O)[C@H](Cc2ccc(O)cc2)NC(=O)[C@H](CC(C)C)NC(=O)[C@H](CC(C)C)NC(=O)[C@H](CCCNC(=N)N)NC(=O)[C@H](Cc2ccc(O)cc2)NC(=O)[C@H](Cc2ccc(O)cc2)NC(=O)[C@H](CCC(N)=O)NC(=O)[C@H](Cc2c[nH]cn2)NC(=O)[C@H](Cc2ccc(O)cc2)NC(=O)CSC[C@@H](C(=O)NCC(N)=O)NC(=O)CNC1=O` ({CH2CO}-YHQYYRLLYGNLGCG-NH2; thioether N-14), the IC50 was 26.4 nM.

In turn, `CC[C@H](C)[C@@H]1NC(=O)[C@H](Cc2c[nH]c3ccccc23)NC(=O)[C@H](CC(N)=O)NC(=O)[C@H](Cc2ccc(O)cc2)NC(=O)[C@H](Cc2ccc(O)cc2)NC(=O)CSC[C@@H](C(=O)NCC(N)=O)NC(=O)[C@H](CO)NC(=O)[C@H]([C@@H](C)O)NC(=O)[C@H](CC(N)=O)NC(=O)[C@H](Cc2ccc(O)cc2)NC(=O)[C@H](Cc2ccc(O)cc2)NC(=O)[C@H](Cc2ccccc2)NC(=O)[C@H](Cc2c[nH]cn2)NC(=O)[C@H](CC(=O)O)NC1=O` ({CH2CO}-YYNWIDHFYYNTSCG-NH2; thioether N-14) yielded a concentration for half-maximal inhibition (IC50) of more than 30000 nM.

Broadly, the IC50 is the midpoint of a concentration-inhibition curve. Lower therefore signals higher potency.
